The values that follow come from patent US20220259215A1, “PYRROLOPYRAZOLE DERIVATIVES, PREPARATION METHOD THEREOF AND APPLICATION THEREOF IN MEDICINE” (SHANGHAI MEDICILON INC., priority 2019, published 2022).

As usually defined, the pIC50 is the negative decadic logarithm of the IC50, by convention in mol/L.

pIC50: −log10 of the molar value.

This test deals with T1, H+/K+ATPase (Oryctolagus cuniculus, UniProt P27112).
T1 construct: The stomach tissue of the rabbit was separated; from tissue; host or cells: rabbit stomach (fundus mucosa), membrane fraction obtained by differential and Ficoll centrifugation
T1 sequence (P27112 whole entry): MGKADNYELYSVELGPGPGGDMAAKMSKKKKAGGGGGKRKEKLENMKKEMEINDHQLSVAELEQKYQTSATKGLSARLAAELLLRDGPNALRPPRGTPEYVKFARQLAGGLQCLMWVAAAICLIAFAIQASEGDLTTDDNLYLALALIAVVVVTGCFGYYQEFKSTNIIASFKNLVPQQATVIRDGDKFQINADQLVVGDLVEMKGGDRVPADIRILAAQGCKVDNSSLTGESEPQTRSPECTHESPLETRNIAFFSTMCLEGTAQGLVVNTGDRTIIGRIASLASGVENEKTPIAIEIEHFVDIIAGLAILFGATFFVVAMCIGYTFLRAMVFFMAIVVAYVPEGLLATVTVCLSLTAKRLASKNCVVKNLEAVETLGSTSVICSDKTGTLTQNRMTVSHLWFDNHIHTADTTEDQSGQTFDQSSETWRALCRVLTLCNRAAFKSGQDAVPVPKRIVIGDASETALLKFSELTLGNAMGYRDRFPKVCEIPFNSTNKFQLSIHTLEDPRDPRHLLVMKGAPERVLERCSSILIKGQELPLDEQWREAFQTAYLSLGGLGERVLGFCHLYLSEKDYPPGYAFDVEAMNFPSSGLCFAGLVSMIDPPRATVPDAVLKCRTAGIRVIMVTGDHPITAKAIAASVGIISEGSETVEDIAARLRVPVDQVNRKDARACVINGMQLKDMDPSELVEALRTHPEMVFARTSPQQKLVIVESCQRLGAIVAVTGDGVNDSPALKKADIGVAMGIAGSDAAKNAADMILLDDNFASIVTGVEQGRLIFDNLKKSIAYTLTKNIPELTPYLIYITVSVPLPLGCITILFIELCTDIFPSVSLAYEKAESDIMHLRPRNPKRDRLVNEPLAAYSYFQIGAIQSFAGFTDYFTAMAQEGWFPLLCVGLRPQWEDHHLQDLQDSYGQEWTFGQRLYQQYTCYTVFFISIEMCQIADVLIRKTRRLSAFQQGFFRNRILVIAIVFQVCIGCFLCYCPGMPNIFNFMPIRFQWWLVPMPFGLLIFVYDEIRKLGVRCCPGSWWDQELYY
T1 sequence (P18597 whole entry partner): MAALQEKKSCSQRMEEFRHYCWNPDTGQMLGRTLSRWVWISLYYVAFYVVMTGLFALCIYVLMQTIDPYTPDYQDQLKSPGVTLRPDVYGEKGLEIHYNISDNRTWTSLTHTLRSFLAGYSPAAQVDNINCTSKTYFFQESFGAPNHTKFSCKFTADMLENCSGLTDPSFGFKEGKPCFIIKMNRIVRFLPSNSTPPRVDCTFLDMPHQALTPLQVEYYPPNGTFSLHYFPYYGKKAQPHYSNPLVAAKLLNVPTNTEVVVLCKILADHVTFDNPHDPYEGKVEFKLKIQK
Put plainly: Determination of compounds' inhibition of H+/K+ATPase enzyme activity (malachite green, OD 620 nm). The test is classed as biochemical. The settings on record: H+/K+ATPase extracted from rabbit stomach mucosa; 500 μM ATP, pH 6.5, 37° C. The source says:
Test Example: Determination of Compounds' Inhibition of H+/K+ATPase Enzyme Activity
The following experiment is used to determine the inhibitory effect of the compound of the present invention on the H+/K+ATPase enzyme activity.
1. Experimental materials
Plate reader: SpectraMax M5(MD).
Malachite Green (Sigma Aldrich, 213020-25G).
Ammonium molybdate (Sigma Aldrich, 277908-20G).
ATP (Sigma Aldrich, A1852-1VL).
Enzyme working solution: titrating the enzyme, diluting the enzyme with buffer solution 1, and taking 5 μl of the diluted solution into 50 μl reaction system.
ATP solution: 100 mM ATP was diluted to 5 mM with no K+ buffer, and 5 μl of the diluted solution was added to the 50 μl reaction system, that is, the final concentration of ATP was 500 μM.
MLG color development liquid: 0.12% MLG, 7.5% ammonium molybdate, 11% Tween-20 was mixed as 100:25:2, and adding 15 μl of the mixture into each well during detection.
Buffer 1: 50 mM Tris-HCl pH 6.5, 5 mM magnesium chloride (magnesium chloride), 10 μM valinomycin (valinomycin).
Buffer 2: 50 mM Tris-HCl pH 6.5, 5 mM magnesium chloride (magnesium chloride), 10 μM valinomycin (valinomycin), 20 mM KCl.
Homogenization buffer: 10 mmol/L Tris-HCl, pH 6.8, 0.25M sucrose (sucrose), 1 mmol/LEDTA.
7.5% Ficoll layering solution: homogenization buffer+7.5% (W/W) (Ficoll 400).
3.1.H^+/K^+ATPase enzyme extraction
(1) The stomach tissue of the rabbit was separated, and the blood was washed with tap water, food residue.
(2) The fundus portion was thoroughly washed with pre-cooled NaCl solution to remove surface mucus.
(3) The stripped mucosa was filled into a sample bag or a 50 ml centrifuge tube, and quickly freezing in a liquid nitrogen tank.
(4) The tissue was removed, minced with surgical scissors, and a pre-cooled homogenization buffer (4 ml/g tissue) was added and homogenized in a tissue homogenizer for 2 to 10 minutes.
(5) After homogenization, if there were larger tissue particles, they could be removed by centrifugation (600 g, 10 min), and then the supernatant was transfered to a clean centrifuge tube. After centrifugation at 20000 g for 30 minutes, then the supernatant was transferred to a clean centrifuge tube at 100000 g for 90 minutes, and the precipitate was collected.
(6) Resuspending the precipitate with homogenization buffer, blowing uniformly, adding 7.5% Ficoll layering solution at equal ratio, centrifuging at 100000 g for 90 minutes, and collecting the precipitate.
(7) Resuspending the precipitate with homogenization buffer, blowing uniformly, and the protein concentration was measured by Bradford. Freezing in tubes at −80° C. for later use.
3.2. H+/K+ATPase activity experiment
(1) Adding 35 μl of reaction buffer to each experimental well, and then adding 35 μl of buffer 1.
(2) Adding 5 μl buffer 1 containing 10% DMSO to the whole enzyme and buffer well.
(3) Adding 5 μl of 10× compound working solution to the compound well and mixing well.
(4) Adding 5 μl of buffer 1 to the buffer well.
(5) Adding 5 μl of 10× enzyme working solution to the remaining wells, mixing and incubating at 37° C. for 30 minutes.
(6) Adding 5 μl of 10× ATP working solution to all experimental wells, mixing and incubating at 37° C. for 20 min.
(7) Adding 15 μl MLG chromogenic solution to all experimental wells, and uniformly mixing and incubating at room temperature for 5-30 min.
(8) The reading number of 620 nm was detected by an M5 instrument.
The inhibition rate is calculated with the following formula:
Inhibition rate (IC50)=[OD (sample well)-OD (full enzyme well containing potassium chloride)]/[(OD (full enzyme well containing potassium chloride)−(OD (full enzyme well without potassium chloride)]×100%
Compound `CN1Cc2nn(Cc3cccc(Nc4cncc(Cl)n4)c3)c(-c3ccccc3F)c2C1` [Example 7, 6-chloro-N-(3-((3-(2-fluorophenyl)-5-methyl-5,6-dihydropyrrolo[3,4-c]pyrazol-2(4H)-yl)methyl)phenyl)pyrazin-2-amine] showed a pIC50 of 6.49.

Compound `CNc1nccc(Nc2cccc(Cn3nc4c(c3-c3ccccc3F)CN(C)C4)c2)n1` [Example 5, N4-(3-((3-(2-fluorophenyl)-5-methyl-5,6-dihydropyrrolo[3,4-c]pyrazol-2(4H)-yl)methyl)phenyl)-N2-methylpyrimidine-2,4-diamine] showed a negative logarithm of the IC50 (pIC50) of 6.55.

With `COc1ccc(Nc2cccc(Cn3nc4c(c3-c3ccccc3F)CN(C)C4)c2)c(Cl)n1` [Example 1, 2-chloro-N-(3-((3-(2-fluorophenyl)-5-methyl-5,6-dihydropyrrolo[3,4-c]pyrazol-2(4H)-yl)methyl)phenyl)-6-methoxypyridin-3-amine], the pIC50 was 6.38.

Turning to `Cc1ccc(Nc2cccc(Cn3nc4c(c3-c3ccccc3F)CN(C)C4)c2)c(Cl)n1` [Example 2, 2-chloro-N-(3-((3-(2-fluorophenyl)-5-methyl-5,6-dihydropyrrolo[3,4-c]pyrazol-2(4H)-yl)methyl)phenyl)-6-methylpyridin-3-amine], the pIC50 is 6.17.

`CN1Cc2nn(Cc3cccc(Nc4ccnc(Cl)n4)c3)c(-c3ccccc3F)c2C1` [Example 3, 2-chloro-N-(3-((3-(2-fluorophenyl)-5-methyl-5,6-dihydropyrrolo[3,4-c]pyrazol-2(4H)-yl)methyl)phenyl) pyrimidin-4-amine]: the pIC50 was 6.02.

Take `CN1Cc2nn(Cc3cccc(Nc4ccnc(N5CCOCC5)n4)c3)c(-c3ccccc3F)c2C1` [Example 6, N-(3-((3-(2-fluorophenyl)-5-methyl-5,6-dihydropyrrolo[3,4-c]pyrazol-2(4H)-yl)methyl)phenyl)-2-morpholinopyrimidin-4-amine]: the pIC50 is 5.55.

In turn, `CN1Cc2nn(Cc3cccc(Nc4cc[nH]c(=O)n4)c3)c(-c3ccccc3F)c2C1` [Example 4, 4-((3-((3-(2-fluorophenyl)-5-methyl-5,6-dihydropyrrolo[3,4-c]pyrazol-2(4H)-yl)methyl)phenyl)amino)pyrimidin-2-(1H)-one] had a negative logarithm of the IC50 (pIC50) of 6.14.
